{
  "source": "patent US11903932B2",
  "about": "“Use of dihydroberberine or its derivatives to enhance muscle function” (NANJING NUTRABUILDING BIO-TECH CO., LTD., priority 2021, dated 2024)",
  "format_in_all_cases": "in vivo, Sprague Dawley rats",
  "key": {"[1]": {"assay": "Body fat percentage by nuclear magnetic resonance body composition analyzer in high-fat diet rats", "conditions": "HFD rats, FIG. 1", "experimental": "Male Sprague Dawley rats aged 6-8 weeks were housed under a 12/12 h light/dark cycle at 22° C. and given free access to water and high-fat diet (HFD, 60% kcal from fat) for 12 weeks. After the 12 weeks, all rats were randomly divided into 3 groups of 8 animals. They were supplemented with or without DHB according to the following: • (1) non-supplement group (Con HFD only, Group 1); • (2) DHB supplement group (DHB+HFD, 100 mg/kg, Group 2); • (3) DHB supplement group (DHB+HFD, 200 mg/kg, Group 3). Before supplementing DHB, the muscle content of all rats was measured by nuclear magnetic resonance body composition analyzer. And then all rats were administered DHB before each major meal once daily by gavage (i.g.) in normal saline solution for 4 months. The muscle content of all rats was tested by nuclear magnetic resonance body composition analyzer every month. […] FIG. 1 is a graph of percentage of body fat of three groups of rats (Con; DHB 100 mg/kg; DHB 200 mg/kg) every month. […] Thus, DHB supplementation could achieve the beneficial effects on weight loss and increasing muscle mass."}, "[2]": {"test_system": "glucose transporter type 4 (GLUT4)", "assay": "Insulin stimulating membrane translocation of GLUT4 in skeletal muscle by western blot", "conditions": "HFD rats, DHB groups 100 and 200 mg/kg, especially higher dose; insulin 0.75 IU/kg i.p.; gastrocnemius muscle, FIG. 2", "experimental": "(§1) Male Sprague Dawley rats aged 6-8 weeks were housed under a 12/12 h light/dark cycle at 22° C. and given free access to water and high-fat diet (HFD, 60% kcal from fat) for 12 weeks. After the 12 weeks, all rats were randomly divided into 3 groups of 8 animals. They were supplemented with or without DHB according to the following: • (1) non-supplement group (Con HFD only, Group 1); • (2) DHB supplement group (DHB+HFD, 100 mg/kg, Group 2); • (3) DHB supplement group (DHB+HFD, 200 mg/kg, Group 3).\nBefore the rats were sacrificed, half the rats in each group were injected with 0.75 IU/kg body weight insulin (i.p.) to activate glucose uptake and assess the insulin resistance in the skeletal muscle. […]\nTo assess that DHB could improve insulin resistance in the skeletal muscle, the insulin stimulating membrane translocation of glucose transporter type 4 (GLUT4) by the western blot analysis was measured and compared among the groups. […]\nWestern blot analysis: The concentration of protein in the gastrocnemius muscle was quantitated by piercing bicinchoninic acid (BCA), and 120 μg of total protein was electrophoresed on a 12% SDS polyacrylamide gel and electro-transferred onto Polyvinylidene difluoride (PVDF) membranes. […] The images were quantified using Image Analysis Software."}, "soleus muscles": {"test_system": "soleus muscles", "assay": "HE staining of soleus, morphological changes of the skeletal muscle", "conditions": "HFD rats, DHB supplementation groups, especially group 3 (200 mg/kg)", "experimental": "as §1\n(§2) Before the rats were sacrificed, half the rats in each group were injected with 0.75 IU/kg body weight insulin (i.p.) to activate glucose uptake and assess the insulin resistance in the skeletal muscle. Fifteen minutes later, all the rats were anesthetized with chloral hydrate; the soleus muscles were fixed in paraformaldehyde, and the gastrocnemius muscles were frozen immediately in liquid nitrogen and stored at −80° C. for protein-related experiments.\nTo evaluate the morphological changes of the skeletal muscle, HE staining of soleus was conducted. Hematoxylin-eosin (HE) staining: Soleus muscles were fixed in paraformaldehyde overnight, dehydrated in an ascending graded ethanol series, equilibrated with xylene, embedded in paraffin and sectioned into 5- to 10-μm slices. Then, the samples were dewaxed with xylene and a descending graded ethanol series. […]"}, "ATP": {"test_system": "ATP", "assay": "ATP determination in serum and skeletal muscle (ELISA)", "conditions": "HFD rats", "experimental": "Male Sprague Dawley rats aged 6-8 weeks were housed under a 12/12 h light/dark cycle at 22° C. and given free access to water and high-fat diet (HFD, 60% kcal from fat) for 12 weeks. After the 12 weeks, all rats were randomly divided into 3 groups of 8 animals. They were supplemented with or without DHB according to the following: • (1) non-supplement group (Con HFD only, Group 1); • (2) DHB supplement group (DHB+HFD, 100 mg/kg, Group 2); • (3) DHB supplement group (DHB+HFD, 200 mg/kg, Group 3). Based on the results of decreased fiber number and insulin resistance, the mitochondrial function in skeletal muscle might be also impaired. ATP and ROS levels in serum and skeletal muscle, which represented mitochondrial function, were further determined. ATP determination: The ATP concentration in the gastrocnemius muscle was measured using ELISA according to the manufacturer's instructions. Before the ELISA was tested, the gastrocnemius muscle lysates were first measured with a BCA protein assay kit, and the total protein concentration of each group was adjusted to the same by RIPA. The concentration of ATP was then calculated based on the absorption density determined at 450 nm."}, "ROS": {"test_system": "ROS", "assay": "Reactive oxygen species (ROS) test in serum and skeletal muscle", "conditions": "HFD rats, DHB 100 and 200 mg/kg", "experimental": "Male Sprague Dawley rats aged 6-8 weeks were housed under a 12/12 h light/dark cycle at 22° C. and given free access to water and high-fat diet (HFD, 60% kcal from fat) for 12 weeks. After the 12 weeks, all rats were randomly divided into 3 groups of 8 animals. They were supplemented with or without DHB according to the following: • (1) non-supplement group (Con HFD only, Group 1); • (2) DHB supplement group (DHB+HFD, 100 mg/kg, Group 2); • (3) DHB supplement group (DHB+HFD, 200 mg/kg, Group 3). Based on the results of decreased fiber number and insulin resistance, the mitochondrial function in skeletal muscle might be also impaired. ATP and ROS levels in serum and skeletal muscle, which represented mitochondrial function, were further determined. Reactive oxygen species (ROS) test: Ten microliters of skeletal muscle or lysate or 10 μl of serum was added to 127.5 μl of reaction buffer in 96-well plates (containing 30 mM HEPES (pH 7.2), 200 mM KCl, 1 mM MgCl2, and 7.5 μl of 2,2′-azobis(2-methylpropionamidine) dihydrochloride). The same volume of ultrapure water was pipetted into the plate as a blank. The microplate was put into a fluorescence microplate reader at 35° C. 10 μl of the fluorescent probe H2DCF-DA was added to each well for a final concentration of 40 μM immediately before reading, and the level of ROS was detected at 488 and 525 nm."}, "AMPK/SIRT1/PGC-1α": {"test_system": "AMPK/SIRT1/PGC-1α", "assay": "Western blot of AMPK/SIRT1/PGC-1α protein expression in muscle tissue", "conditions": "HFD rats, skeletal muscle", "experimental": "as §1, §2\nProtein sample preparation: For total protein extraction, 100 mg of the frozen gastrocnemius muscle was homogenized in radioimmunoprecipitation assay (RIPA) buffer (containing 0.2 μg/mL PMSF and 10 μg/mL phosphatase inhibitor) for 30 min and then centrifuged at 3,500 rpm×15 min and 12,000 rpm×15 min. The supernatants were extracted for the western blot analysis.\nWestern blot analysis: The concentration of protein in the gastrocnemius muscle was quantitated by piercing bicinchoninic acid (BCA), and 120 μg of total protein was electrophoresed on a 12% SDS polyacrylamide gel and electro-transferred onto Polyvinylidene difluoride (PVDF) membranes. Membranes were blocked with 5% (w/v) BSA for 2 h at room temperature and then incubated with primary antibodies overnight at 4° C. with slight shaking. After being washed with TBST three times, the membranes were incubated with a secondary antibody (1:2000) at room temperature for 2 h. The protein bands were visualized by enhanced chemiluminescence with a GENE Imaging system. The images were quantified using Image Analysis Software.\nWestern blot was used to check the protein expression of AMPK/SIRT1/PGC-1α in the muscle tissue."}},
  "data": [
    {"smiles": "COc1ccc2c(c1OC)CN1CCc3cc4c(cc3C1=C2)OCO4", "note": "[DHB, dihydroberberine]", "values": [
      {"measurement": "reduction in body fat compared to control group", "setting": "[1]; DHB 100 and 200 mg/kg i.g. once daily for 4 months", "value": "greater reduction in body fat"},
      {"measurement": "decrease of percentage of body fat versus beginning of supplementation", "setting": "[1]; higher dose group (200 mg/kg) i.g. once daily, 4 months", "value": "about 52%"},
      {"measurement": "membrane translocation of GLUT4 after insulin stimulation relative to control group", "setting": "[2]", "value": "remarkably increased"},
      {"measurement": "number of muscle fibers compared with the control group", "setting": "soleus muscles; FIG. 3a", "value": "increased dramatically"},
      {"measurement": "relative cross-sectional area of the muscle fibers versus control group", "setting": "soleus muscles; FIG. 3b", "value": "dropped below that of the control group"},
      {"measurement": "production of ATP in serum relative to the control group", "setting": "ATP; DHB 200 mg/kg, serum, FIG. 4a", "value": 1.6, "unit": "fold"},
      {"measurement": "production of ATP in skeletal muscle relative to the control group", "setting": "ATP; DHB 200 mg/kg, skeletal muscle, FIG. 4c", "value": 2.7, "unit": "fold"},
      {"measurement": "production of ATP in serum", "setting": "ATP; DHB treatment 100 and 200 mg/kg, serum, FIG. 4a", "value": "increased significantly"},
      {"measurement": "production of ATP in skeletal muscle", "setting": "ATP; DHB treatment 100 and 200 mg/kg, skeletal muscle, FIG. 4c", "value": "increased significantly"},
      {"measurement": "ROS level in serum", "setting": "ROS; serum, FIG. 4b", "value": "inhibit increased ROS effectively"},
      {"measurement": "ROS level in skeletal muscle", "setting": "ROS; skeletal muscle, FIG. 4d", "value": "inhibit increased ROS effectively"},
      {"measurement": "total AMPK protein expression among the three groups", "setting": "AMPK/SIRT1/PGC-1α; DHB 100 and 200 mg/kg vs control, GAPDH as internal reference, FIG. 4e", "value": "no significant difference"},
      {"measurement": "protein expression of p-AMPK", "setting": "AMPK/SIRT1/PGC-1α; DHB groups, especially group 3 (200 mg/kg), FIG. 4e", "value": "dramatically upregulated"},
      {"measurement": "protein expression of SIRT1 relative to the control group", "setting": "AMPK/SIRT1/PGC-1α; group 3 (DHB 200 mg/kg), FIG. 4f", "value": "approximately 1.9 fold"},
      {"measurement": "protein expression of PGC-1α relative to the control group", "setting": "AMPK/SIRT1/PGC-1α; group 3 (DHB 200 mg/kg), FIG. 4g", "value": "~2", "unit": "fold"}
    ]}
  ]
}
